Results from US6057324A, “Substituted amidinobenzene derivatives and medicinal compositions thereof” (Yamanouchi Pharmaceutical Co., Ltd, priority 1996, dated 2000).

Experiments:
[1] = Metabolic test of an active body (Compound A) in plasma after oral administration to beagle dogs; assay type: in vivo; conditions: 10 mg/kg
Experimental: Compound of Example 2 of the present invention was administered to three beagle dogs orally at a dose of 10 mg/kg as an aqueous solution and then blood was withdrawn over 48 hours after administration. After centrifugation, plasma was separated and then stored at -20° C. until analysis. Compound A (compound name: 4-[4-(4-amidinophenyl)-3-oxo-1-piperazinyl]-1-piperidineacetic acid, an unexamined published Japanese patent application No. 8-333342), which is an active body produced as a metabolite of Compound of Example 2, was determined by the high performance liquid chromatography method to obtain the pharmacokinetic parameters. Compound A was also administered to the same beagle dogs at a dose of 10 mg/kg, and then plasma Compound A concentration was measured. Pharmacokinetic parameters of Compound A after the administration of Compound of Example 2 and Compound A were compared-with each other. In Table 1 it is shown the pharmacokinetic parameters of plasma Compound A after oral administration, and in FIG. 1 it is shown the plasma concentration-time profile of Compound A after oral administration.
Table 1 represents Pharmacokinetic parameters of plasma Compound A after oral administration of Compound of Example 2 and Compound A to beagle dogs at a dose of 10 mg/kg (mean of three animals±standard deviation) and FIG. 1 represents plasma concentration-time profile of Compound A.

platelets = assay: Ex vivo platelet aggregation-inhibiting activity in cynomolgus monkeys; conditions: 1 mg/kg via stomach tube, triggers 20 μM ADP and 10 μg/ml collagen
Experimental: Cynomolgus monkeys that had been lightly anesthetized by intramuscular administration of ketamine hydrochloride were fixed on a work-bench, and a sample compound of the present invention dissolved or suspended in a methylcellulose solution was administered into the stomach via a stomach tube at a dose of 1 mg/kg. Before the administration and after the administration at a predetermined period of time, 3 ml (containing 1/10 times by volume of sodium citrate) of the blood was collected from the animal through the femoral vein. From the blood, platelet-rich-plasma (PRP) was obtained according to the method of De Marco et al's (see J. clin. Invest., 77, 1272-1277, 1986). The PRP was adjusted at 3×10^8 /ml with an automatic blood cell counter (MEK-5158 Model, produced by Nihon Koden Co.) before use. Then, 20 μM of ADP and 10 μg/ml of bovine tendon-derived collagen (produced by Niko Bioscience Co.) as triggers to cause the aggregation of the platelets. The degree of the aggregation of the platelets was measured with a platelet aggregation meter (NBS Hematracer 801, produced by Niko Bioscience Co.). The platelet aggregation-inhibiting activity of the tested compound was represented by the inhibition percentage (%) relative to the maximum aggregation percentage of each animal before the addition of the test compound.
The test results are shown in Table 2 together with the results of the Compound A which is the active body of the compounds of the present invention.

Compound | bioavailability of Compound A when administered as prodrug (in words) [1] | plasma residence time of Compound A when administered as prodrug (in words) [1] | t1/2 of Compound A compared with administration of Compound A (in words) [1] | Platelet aggregation-inhibiting ratio after 3 hours (platelets) [%] | Platelet aggregation-inhibiting ratio after 6 hours (platelets) [%] | Platelet aggregation-inhibiting ratio after 9 hours (platelets) [%] | Platelet aggregation-inhibiting ratio after 12 hours (platelets) [%] | Platelet aggregation-inhibiting ratio after 24 hours (platelets) [%] | AUC(0-t) at 48 h ([1]; dog, plasma, mean of three animals ± standard deviation, analyte Compound A, read-out: AUC0-48 (area under the time-concentration curve in plasma over 48 hours) of Compound A) [ng·h/mL] | Cmax ([1]; dog, plasma, mean of three animals ± standard deviation, analyte Compound A, read-out: Cmax (maximum plasma concentration) of plasma Compound A) [ng/mL] | Tmax ([1]; dog, plasma, mean of three animals ± standard deviation, analyte Compound A, read-out: Tmax (time to reach Cmax) of plasma Compound A) [h] | half-life ([1]; dog, plasma, mean of three animals ± standard deviation, analyte Compound A, read-out: t1/2 (elimination half life) of plasma Compound A (converted)) [h]
CCOC(=O)CN1CCC(N2CCN(c3ccc(C(=N)NO)cc3)C(=O)C2)CC1 [Example 2, ethyl 4-[4-(4-hydroxyamidinophenyl)-3-oxo-1-piperazinyl]-1-piperidineacetate] | increase | increase | greatly prolonged | 24.7 ± 23.7 | 66.3 ± 15.4 | 88.0 ± 11.0 | 89.0 | 54.0 ± 9.0 |  |  |  | 
N=C(N)c1ccc(N2CCN(C3CCN(CC(=O)O)CC3)CC2=O)cc1 [Compound A, 4-[4-(4-amidinophenyl)-3-oxo-1-piperazinyl]-1-piperidineacetic acid] |  |  |  | 19.7 ± 9.4 | 16.3 ± 7.5 | 14.2 ± 5.9 |  |  | 3550 ± 838 | 748 ± 175 | 1.7 ± 0.6 | 2.1
CCOC(=O)CN1CCC(N2CCN(c3ccc(C(=N)NC(=O)OC)cc3)C(=O)C2)CC1 [Example 7, Ethyl 4-[4-(4-methoxycarbonylamidinophenyl)-3-oxo-1-piperazinyl]-1-piperidineacetate] |  |  |  | 9.0 ± 5.7 | 42.0 ± 14.7 | 60.0 ± 15.6 | 64.3 | 26.0 ± 2.9 |  |  |  | 
